How the values were obtained:
[1] = test system: OVA-induced AHR; assay: OVA-induced model of airway hyperreactivity (AHR); format: in vivo, BALB/c mice; conditions: for number of cells (eosinophils, lymphocytes, macrophages) in BAL fluid: versus OVA-immunized control group, BAL 3 h after airway measurements (FIG. 2D); for histological examination of H&E-stained lung sections: OVA-immunized mice, compared with saline (negative) control (data not shown); for development of methacholine-induced AHR (PenH, whole-body plethysmograph): single dose 250 μg i.v., 1 day before OVA challenge, OVA-immunized mice (FIG. 2B)
Protocol: DPPE (250 μg) was injected i.v. on day 8 and AHR was measured on day 12. Reagents. Anti-CD3 mAb was purchased from BD PharMingen (San Diego, Calif.). α-Galactosylceramide (α-[…]7000) was purchased from Axxora LLC (San Diego, Calif.). DPPE-PEG. (1,2-Dipalmitoyl-sn-Glycero-3-Phosphoethanolamine-N-[Methoxy(Polyethylene glycol)-350]) (Ammonium Salt) (PEG350) was purchased from Avanti Polar Lipids, INC (Alabaster, Ala.). We thank A. Bendelac for the DN32.D3 hybridoma cells. To induce AHR, mice were immunized intraperitoneally with 50 μg of LPS free OVA (Worthington Biochemical Corp., NJ) in 2 mg of alum in volume of 0.5 ml. Ten days later mice were lightly anesthetized with methoxoflurane and challenged with i.n. OVA (50 μg) on 3 consecutive days. Induction of AHR and measurement of airway responsiveness-AHR responses were assessed by methacholine-induced airflow obstruction in conscious mice placed in a whole-body plethysmograph (Buxco Electronics, Troy, N.Y.) as described previously 15. In some experiments AHR was assessed by invasive measurement of airway resistance, in which anesthetized and tracheostomized mice were mechanically ventilated using a modified version of a described method 36. Aerosolized methacholine was administered for 20 breaths in increasing concentrations (1.25, 2.5, 5 and 10 mg/ml of methacholine). We continuously computed RL and Cdyn by fitting flow, volume and pressure to an equation of motion. Collection and analysis of BAL fluid-Mice were lethally anesthetized with phenobarbital 450 mg/kg i.p. The trachea was cannulated and the lungs were lavaged three times with 0.3 ml of PBS, and the collected fluid was pooled. Cell counts and analysis of the BAL was performed as described (15). […] In this model, an asthma-like phenotype with AHR, eosinophilic airway inflammation and mucus hypersecretion is induced by systemic sensitization with OVA followed by intrapulmonary challenge with OVA (FIG. 2A).

[2] = test system: OVA-specific Th2 responses; assay: Restimulation of bronchial lymph node cells of treated mice with OVA in vitro, cytokine ELISA; format: in vivo, BALB/c mice
Protocol: Bronchial lymph nodes were removed from Peg treated or PBS treated mice and restimulated with 100 μg of OVA in vitro. After 72 hrs supernatants were collected and cytokine production analyzed by ELISA. ELISA data are representative of three separate experiments (n=4) and are shown as mean±SD for triplicate samples. Restimulation of lymph node cells in vitro. Cells isolated from lymph nodes of OVA-primed mice were restimulated in vitro (5×10^5 cells per well in a 96-well plate) with various concentrations of OVA. Supernatants were collected after 4 days and assayed for IL-4 and IFN-γ by ELISA as previously described (15). Cytokine ELISAs—Cytokine secretion following in vitro challenge with OVA and control peptides were determined by ELISA as described before (15). Briefly, the following monoclonal antibodies R4-6A2 and XMG1.2-biotin for IFN-γ and 11B11 and BVD6-24G2-biotin for IL-4 were used for capture and detection. […] Bronchial lymph nodes were removed from Peg treated or PBS treated mice and restimulated with 100 μg of OVA in vitro. After 72 hrs supernatants were collected and cytokine production analyzed by ELISA. ELISA data are representative of three separate experiments (n=4) and are shown as mean±SD for triplicate samples. Since treatment with DPPE-PEG350 inhibited the development of AHR, we next asked if administration of the CD1d-dependent antagonist prior to airway challenge altered systemic OVA-specific Th2 responses. Bronchial lymph node cells were isolated from OVA sensitized mice treated with either DPPE-PEG350 or PBS, and restimulated in vitro with 100 μg/ml of ovalbumin a day after induction of AHR. […] No OVA-specific cytokine secretion was seen if the animals had not been sensitized with OVA on day 0 (data not shown).

[3] = test system: CD1d; conditions: references 2-5; cited from earlier work
[4] = test system: iNKT cell; conditions: references 2-5; cited from earlier work
[5] = test system: α-GalCer-stimulated iNKT cells; assay: Inhibition of in vitro iNKT activation: splenocytes stimulated with α-GalCer, cytokine ELISA; format: cell-based, BALB/cJ mice
Protocol: (§1) FIGS. 1A and 1B show splenocyte cells (5×10^6/ml) pooled from BALB/cJ mice (n=4) that were cultured in anti-CD3 mAb (2 μg/ml)-precoated 24-well plates in complete RPMI±increasing concentrations of DPPE-PEG350, or that were cultured in 24-well plates in complete RPMI±α-GalCer (100 ng/ml)±increasing concentrations of DPPE-PEG350. After 48 h, supernatants were gathered and examined for IL-4 and INF-γ by ELISA. ELISA data are representative of three separate experiments each and are shown as mean±SD for triplicate samples.
(§2) Inhibition of in vitro iNKT activation with DPPE-PEG-Splenocytes cells (5×10^6/ml) pooled from BALB/cJ mice (n=4) were cultured in anti-CD3 mAb (2 μg/ml)-precoated 24-well plates in complete RPMI±increasing concentrations of DPPE-PEG350, or cultured in 24-well plates in complete RPMI±KRN7000 (100 ng/ml)±increasing concentrations of DPPE-PEG350. After 48 h, supernatants were gathered and examined for IL-4 and INF-γ by ELISA as described (35).
(§3) Phosphatidylethanolamine and DPPE-PEG bind to CD1d and prevent iNKT cell activation (2-5). To determine whether activation of iNKT cells by α-GalCer could specifically be inhibited by DPPE-PEG, splenocytes were incubated with α-GalCer (100 ng/ml) or plate-bound anti-CD3. […] Culture supernatants were collected and IL-2 expression expression analyzed with IL-2 dependant cell line CTLL-2. […]

[6] = test system: anti-CD3 activated T cells; assay: Splenocytes cultured on plate-bound anti-CD3 mAb, cytokine ELISA; format: cell-based, BALB/cJ mice; conditions: plate-bound anti-CD3 2 μg/ml, at concentrations that significantly inhibited α-GalCer-stimulated secretion
Protocol: as §1, §2, §3

[7] = test system: contact hypersensitivity (CHS); conditions: Nieuwenhuis et al.; cited from earlier work
[8] = test system: iNKT cell hybridoma line DN32; assay: DN32 NKT hybridoma activation by α-GalCer, IL-2 release read with CTLL-2 cells; format: cell-based; conditions: 200 μg/ml for 4 hours, then titrating α-GalCer 48 h; particularly at suboptimal α-GalCer (FIG. 1C)
Protocol: Culture supernatants were collected and IL-2 expression expression analyzed with IL-2 dependant cell line CTLL-2. Data are means±SD of triplicate cultures.
as §1, with “Phosphatidylethanolamine and DPPE-PEG bind to CD1d and prevent iNKT cell activation (2-5). To determine whether activation of iNKT cells by α-GalCer could specifically be inhibited by DPPE-PEG, splenocytes were incubated with α-GalCer (100 ng/ml) or plate-bound anti-CD3. […] FIGS.” for “FIGS.”, “samples. […] Culture supernatants were collected and IL-2 expression expression analyzed with IL-2 dependant cell line CTLL-2. Data are means±SD of triplicate cultures.” for “samples.”
We also tested the ability of DPPE-PEG350 to block the iNKT cell hybridoma line DN32, activation by α-GalCer. DN32 cells were loaded with 200 μg/ml of DPPE-PEG, and stimulated with titrating dose of α-GalCer. […]

[9] = bronchial lymph node cells, 100 μg/ml ovalbumin, versus PBS treated group (FIG. 3)

Row | Molecule | number of cells (eosinophils, lymphocytes, macrophages) in BAL fluid ([1]; 250 μg i.v.) | histological examination of H&E-stained lung sections [1] | development of methacholine-induced AHR (PenH, whole-body plethysmograph) [1] | development of OVA specific Th2 responses ([2]; bronchial lymph nodes restimulated with 100 μg of OVA, 72 hrs (FIG. 3)) | binding to CD1d [3] | iNKT cell activation [4] | AHR by direct measurement of airway resistance (RL) and dynamic compliance (Cdyn) ([1]; 250 μg i.v., anesthetized, tracheostomized, mechanically ventilated mice (FIG. 2C)) | IL-4 secretion to OVA recall [2, 9] | IL-5 secretion to OVA recall [2, 9] | IL-13 secretion to OVA recall [2, 9] | ova-specific secretion of IFN-γ after in vitro re-challenge ([2]; sensitized and DPPE-PEG treated animals) | secretion of IL-4 by α-GalCer-stimulated iNKT cells ([5]; splenocytes, α-GalCer 100 ng/ml, increasing concentrations of DPPE-PEG, 48 h, ELISA (FIG. 1A/1B)) | iNKT cells cytokine release compared to anti-CD3 activated T cells (preference) ([5]; α-GalCer-stimulated versus anti-CD3-stimulated splenocytes (FIGS. 1A and B)) | cytokine production by anti-CD3 activated T cells [6] | dermatitis in the CHS model [7] | IL-2 release from DN32 iNKT cells [8]
1 | CCCCCCCCCCCCCCCC(=O)OC[C@H](COP(=O)(O)OCCN)OC(=O)CCCCCCCCCCCCCCC [DPPE, 1,2-Dipalmitoyl-sn-Glycero-3-Phosphoethanolamine] | almost completely abrogated | minimal mucus production and negligible cellular infiltration | completely inhibited | does not inhibit | – | – | – | – | – | – | – | – | – | – | – | –
2 | Phosphatidylethanolamine [reference compound] | – | – | – | – | bind | prevent | – | – | – | – | – | – | – | – | – | –
3 | 1,2-Dipalmitoyl-sn-Glycero-3-Phosphoethanolamine-N-[Methoxy(Polyethylene glycol)-350] [DPPE-PEG350] | significantly reducing | no significant differences | completely prevented | – | bind | prevent | confirmed | No significant difference | No significant difference | No significant difference | did not affect | inhibited | preferentially inhibited | no or minimal effect | blocked | inhibited

Reference: patent US20100035843A1, “METHODS FOR ATTENUATING ALLERGEN-INDUCED AIRWAY HYPERREACTIVITY USING CD1D DEPENDENT ANTAGONISTS” (THE GENERAL HOSPITAL CORPORATION, priority 2007, published 2010)
